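Assay format: 96-well plates, 48-hour exposure. Abbreviation: GI50, concentration required for 50% inhibition of growth. TGI is the concentration that stops growth completely.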
Tests used:
Assay in all cases: NCI tumour cell line growth inhibition, 48 h; in the data active means GI50 below about 0.43 µM; inactive means the rest
SK-MEL-28 melanoma = system: SK-MEL-28 melanoma
PC-3 prostate = system: PC-3 prostate
OVCAR-3 ovarian = system: OVCAR-3 ovarian
LOX IMVI melanoma = system: LOX IMVI melanoma
CCRF-CEM leukemia = system: CCRF-CEM leukemia
EKVX NSCLC = system: EKVX NSCLC
HT29 colon = system: HT29 colon
DU-145 prostate = system: DU-145 prostate
M14 melanoma = system: M14 melanoma
SF-539 CNS = system: SF-539 CNS
IGROV1 ovarian = system: IGROV1 ovarian
MCF7 breast = system: MCF7 breast
SK-MEL-2 melanoma = system: SK-MEL-2 melanoma
UO-31 renal = system: UO-31 renal
SF-268 CNS = system: SF-268 CNS
BT-549 breast = system: BT-549 breast
K-562 leukemia = system: K-562 leukemia
OVCAR-4 ovarian = system: OVCAR-4 ovarian
KM12 colon = system: KM12 colon
MOLT-4 leukemia = system: MOLT-4 leukemia
HL-60(TB) leukemia = system: HL-60(TB) leukemia
OVCAR-8 ovarian = system: OVCAR-8 ovarian
HCT-15 colon = system: HCT-15 colon
SF-295 CNS = system: SF-295 CNS
RXF 393 renal = system: RXF 393 renal
NCI/ADR-RES ovarian = system: NCI/ADR-RES ovarian

COc1cccc(COc2ccc(/C=C3\Oc4cc(O)ccc4C3=O)cc2)c1
inactive: GI50 (SK-MEL-28 melanoma) > 100 µM | GI50 (PC-3 prostate) > 100 µM | GI50 (OVCAR-3 ovarian) > 100 µM | GI50 (LOX IMVI melanoma) > 100 µM | GI50 (CCRF-CEM leukemia) > 100 µM | GI50 (EKVX NSCLC) > 100 µM | GI50 (HT29 colon) > 100 µM | GI50 (DU-145 prostate) > 100 µM | GI50 (M14 melanoma) > 100 µM | GI50 (SF-539 CNS) 23.4 µM | GI50 (IGROV1 ovarian) > 100 µM | GI50 (MCF7 breast) > 100 µM | GI50 (SK-MEL-2 melanoma) > 100 µM | GI50 (UO-31 renal) > 100 µM | GI50 (SF-268 CNS) > 100 µM | GI50 (BT-549 breast) > 100 µM | GI50 (K-562 leukemia) > 100 µM | GI50 (OVCAR-4 ovarian) 2.94 µM | GI50 (KM12 colon) > 100 µM | GI50 (MOLT-4 leukemia) > 100 µM | GI50 (HL-60(TB) leukemia) > 100 µM | GI50 (OVCAR-8 ovarian) > 100 µM | GI50 (HCT-15 colon) > 100 µM | GI50 (SF-295 CNS) > 100 µM | GI50 (RXF 393 renal) > 100 µM | GI50 (NCI/ADR-RES ovarian) > 100 µM
10.6 µM: TGI (OVCAR-4 ovarian)
> 100 µM: TGI (SK-MEL-28 melanoma) | TGI (PC-3 prostate) | TGI (OVCAR-3 ovarian) | TGI (LOX IMVI melanoma) | TGI (CCRF-CEM leukemia) | TGI (EKVX NSCLC) | TGI (HT29 colon) | TGI (DU-145 prostate) | TGI (M14 melanoma) | TGI (SF-539 CNS) | TGI (IGROV1 ovarian) | TGI (MCF7 breast) | TGI (SK-MEL-2 melanoma) | TGI (UO-31 renal) | TGI (SF-268 CNS) | TGI (BT-549 breast) | TGI (K-562 leukemia) | TGI (KM12 colon) | TGI (MOLT-4 leukemia) | TGI (HL-60(TB) leukemia) | TGI (OVCAR-8 ovarian) | TGI (HCT-15 colon) | TGI (SF-295 CNS) | TGI (RXF 393 renal) | TGI (NCI/ADR-RES ovarian)
